Legend:
[1] = test system: patients with advanced solid tumours; assay: Phase I toxicity assessment (NCI-CTC version 2.0), oral XR11576 days 1–5 every 21 days; format: in vivo
Protocol: The total dose prescribed was rounded to the nearest 5 mg. […] Dose escalations between cohorts were based on the prior dose level's toxicity and pharmacological data, allowing a dose escalation up to 100% (which was determined by the worst significant toxicity). […] The stopping dose was defined as the dose level that induced dose-limiting toxicity (DLT) during course 1 in ⩾2/3 or ⩾2/6 patients. Dose-limiting toxicities were defined as grade 4 granulocytopenia for 7 or more days, febrile neutropenia, platelets <25.0 × 10^9 l^−1 and/or nonhaematological toxicity ⩾grade 3. Nausea and vomiting subsequently responding to antiemetic therapy were excluded from DLT. […] If a patient encountered DLT, the dose of XR11576 was decreased by one dose level at re-treatment. […] At the dose recommended for further studies, the number of patients treated could be expanded to 12. Toxicities were evaluated according to the National Cancer Institute Common Toxicity Criteria, version 2.0 (ctep.info.nih.gov/reporting/in dex.html).
Before treatment, a complete medical history was recorded and a physical examination performed. A complete blood count (CBC) including white blood cell differential and serum biochemistry, which involved sodium, potassium, calcium, urea, creatinine, uric acid, total protein, albumin, total bilirubin, alkaline phosphatase, γ-glutamyl transferase, aspartate aminotransferase, alanine aminotransferase, lactate dehydrogenase and glucose, were performed, as were urinalysis, pregnancy test, relevant tumour markers, electrocardiogram and a chest X-ray. […] Weekly evaluations included history, physical examination, toxicity assessment according to the CTC criteria version 2.0, and serum chemistries. Complete blood count was determined twice weekly. Tumour evaluation was performed after every two courses according to the Response Evaluation Criteria in Solid Tumours (RECIST) ([Therasse et al, 2000]). Patients were taken off protocol at the onset of disease progression.

[2] = test system: murine and human tumour cell lines; design: method as in Mistry et al, 2002; Lewis et al, 2003; conditions: murine leukaemias and human colon, breast, ovarian and lung carcinoma cell lines; ref Mistry et al, 2002; Lewis et al, 2003; cited from earlier work
[3] = orally on days 1–5 every 3 weeks

COc1cccc2c1ccc1nc3cccc(C(=O)N[C@H](C)CN(C)C)c3nc12 [XR11576, 4-methoxy-benzo[a]phenazine-11-carboxylic acid (2-dimethulamino-1-R-methyl-ethyl)-amide]
2: Fatigue grade 2, worse toxicity per cycle ([1]; 30 mg day^−1, all cycles) | Nausea grade 2, worse toxicity per cycle ([1]; 30 mg day^−1, all cycles) | Nausea grade 1, no. of patients ([1]; 30 mg day^−1, first cycle) | Fatigue grade 1, worse toxicity per cycle ([1]; 60 mg day^−1, all cycles) | Fatigue grade 2, worse toxicity per cycle ([1]; 60 mg day^−1, all cycles) | Fatigue grade 3, worse toxicity per cycle ([1]; 60 mg day^−1, all cycles) | Vomiting grade 1, no. of patients ([1]; 60 mg day^−1, first cycle) | Vomiting grade 3, worse toxicity per cycle ([1]; 120 mg day^−1, all cycles) | WBC grade 1, worse toxicity per cycle ([1]; 120 mg day^−1, all cycles) | Diarrhoea grade 2, no. of patients ([1]; 120 mg day^−1, first cycle) | Vomiting grade 2, no. of patients ([1]; 120 mg day^−1, first cycle) | Vomiting grade 3, no. of patients ([1]; 120 mg day^−1, first cycle) | Nausea grade 1, worse toxicity per cycle ([1]; 150 mg day^−1, all cycles) | Nausea grade 2, worse toxicity per cycle ([1]; 150 mg day^−1, all cycles) | Nausea grade 2, no. of patients ([1]; 150 mg day^−1, first cycle) | Fatigue grade 3, worse toxicity per cycle ([1]; 180 mg day^−1, all cycles) | Plt grade 1, worse toxicity per cycle ([1]; 180 mg day^−1, all cycles) | Plt grade 1, no. of patients ([1]; 180 mg day^−1, first cycle)
seven patients: patients with grade 1 anaemia ([1]; all dose levels)
5: Fatigue grade 1, worse toxicity per cycle ([1]; 120 mg day^−1, all cycles) | Fatigue grade 2, worse toxicity per cycle ([1]; 120 mg day^−1, all cycles) | Vomiting grade 2, worse toxicity per cycle ([1]; 120 mg day^−1, all cycles) | Nausea grade 1, no. of patients ([1]; 120 mg day^−1, first cycle) | Vomiting grade 2, worse toxicity per cycle ([1]; 180 mg day^−1, all cycles)
1 to 14 days: diarrhoea, range of duration ([1]; all dose levels)
No treatment-related deaths: treatment-related deaths ([1]; in vivo)
1 to 5 days: nausea and vomiting, range of duration ([1]; 30 mg)
5 days: diarrhoea, median day of onset ([1]; all dose levels)
exerted antitumour activity: antitumour activity in vitro [2]
four patients: patients with grade 2 anaemia ([1]; all dose levels)
two of three patients: patients in whom DLT was encountered ([1]; 180 mg day^−1 dose level)
6: Nausea grade 1, worse toxicity per cycle ([1]; 60 mg day^−1, all cycles)
120 mg/day: recommended dose for further studies ([1]; days 1–5 every 3 weeks)
3: Nausea grade 1, worse toxicity per cycle ([1]; 30 mg day^−1, all cycles) | Vomiting grade 1, worse toxicity per cycle ([1]; 30 mg day^−1, all cycles) | Nausea grade 1, no. of patients ([1]; 60 mg day^−1, first cycle) | Diarrhoea grade 1, worse toxicity per cycle ([1]; 120 mg day^−1, all cycles) | Diarrhoea grade 2, worse toxicity per cycle ([1]; 120 mg day^−1, all cycles) | Vomiting grade 1, worse toxicity per cycle ([1]; 120 mg day^−1, all cycles) | Fatigue grade 1, no. of patients ([1]; 120 mg day^−1, first cycle) | Fatigue grade 2, no. of patients ([1]; 120 mg day^−1, first cycle) | Nausea grade 2, no. of patients ([1]; 120 mg day^−1, first cycle) | Vomiting grade 2, worse toxicity per cycle ([1]; 150 mg day^−1, all cycles) | Fatigue grade 2, no. of patients ([1]; 150 mg day^−1, first cycle) | Vomiting grade 2, no. of patients ([1]; 150 mg day^−1, first cycle) | Nausea grade 1, worse toxicity per cycle ([1]; 180 mg day^−1, all cycles) | Nausea grade 1, no. of patients ([1]; 180 mg day^−1, first cycle) | Vomiting grade 2, no. of patients ([1]; 180 mg day^−1, first cycle)
7: Nausea grade 2, worse toxicity per cycle ([1]; 120 mg day^−1, all cycles)
4: Vomiting grade 1, worse toxicity per cycle ([1]; 60 mg day^−1, all cycles) | Fatigue grade 2, worse toxicity per cycle ([1]; 150 mg day^−1, all cycles)
2 days: nausea and vomiting, median duration ([1]; 30 mg)
diarrhoea and fatigue: dose-limiting toxicities (DLT) [1, 3]
1 to 15 days: diarrhoea, range of day of onset ([1]; all dose levels)
6 days: nausea and vomiting, median duration ([1]; dose level 180 mg)
4 days: diarrhoea, median duration ([1]; all dose levels)
mild: overall haematological toxicity ([1]; all dose levels)
6%: diarrhoea grade 3–4, share of cycles ([1]; all cycles)
26%: diarrhoea grade 1–2, share of cycles ([1]; all cycles)
one patient: patients who developed grade 1 alopecia ([1]; during treatment) | patients with grade 4 neutropenia ([1]; heavily pretreated patient, not complicated by fever)
8: Nausea grade 1, worse toxicity per cycle ([1]; 120 mg day^−1, all cycles)
1 to 20 days: nausea and vomiting, range of duration ([1]; dose level 180 mg)
No significant abnormalities: abnormalities in ECG tracings ([1]; prior to treatment and following first drug administration)
180 mg/day: maximum tolerated dose (MTD) [1, 3]
three patients: patients with thrombocytopenia ([1]; limited to grade 1 and 2)
1: Diarrhoea grade 1, worse toxicity per cycle ([1]; 30 mg day^−1, all cycles) | Fatigue grade 1, worse toxicity per cycle ([1]; 30 mg day^−1, all cycles) | Fatigue grade 1, no. of patients ([1]; 30 mg day^−1, first cycle) | Fatigue grade 2, no. of patients ([1]; 30 mg day^−1, first cycle) | Diarrhoea grade 1, worse toxicity per cycle ([1]; 60 mg day^−1, all cycles) | Diarrhoea grade 1, no. of patients ([1]; 60 mg day^−1, first cycle) | Fatigue grade 1, no. of patients ([1]; 60 mg day^−1, first cycle) | Fatigue grade 3, no. of patients ([1]; 60 mg day^−1, first cycle) | Diarrhoea grade 3, worse toxicity per cycle ([1]; 120 mg day^−1, all cycles) | Fatigue grade 3, worse toxicity per cycle ([1]; 120 mg day^−1, all cycles) | Plt grade 1, worse toxicity per cycle ([1]; 120 mg day^−1, all cycles) | DLT, no. of patients ([1]; 120 mg day^−1, first cycle) | Diarrhoea grade 1, no. of patients ([1]; 120 mg day^−1, first cycle) | Diarrhoea grade 3, no. of patients ([1]; 120 mg day^−1, first cycle) | Vomiting grade 1, no. of patients ([1]; 120 mg day^−1, first cycle) | WBC grade 1, no. of patients ([1]; 120 mg day^−1, first cycle) | ANC grade 4, worse toxicity per cycle ([1]; 150 mg day^−1, all cycles) | Diarrhoea grade 1, worse toxicity per cycle ([1]; 150 mg day^−1, all cycles) | Diarrhoea grade 2, worse toxicity per cycle ([1]; 150 mg day^−1, all cycles) | Diarrhoea grade 3, worse toxicity per cycle ([1]; 150 mg day^−1, all cycles) | Plt grade 1, worse toxicity per cycle ([1]; 150 mg day^−1, all cycles) | Vomiting grade 1, worse toxicity per cycle ([1]; 150 mg day^−1, all cycles) | WBC grade 2, worse toxicity per cycle ([1]; 150 mg day^−1, all cycles) | ANC grade 4, no. of patients ([1]; 150 mg day^−1, first cycle) | DLT, no. of patients ([1]; 150 mg day^−1, first cycle) | Diarrhoea grade 1, no. of patients ([1]; 150 mg day^−1, first cycle) | Diarrhoea grade 2, no. of patients ([1]; 150 mg day^−1, first cycle) | Diarrhoea grade 3, no. of patients ([1]; 150 mg day^−1, first cycle) | Nausea grade 1, no. of patients ([1]; 150 mg day^−1, first cycle) | Plt grade 1, no. of patients ([1]; 150 mg day^−1, first cycle) | WBC grade 2, no. of patients ([1]; 150 mg day^−1, first cycle) | ANC grade 3, worse toxicity per cycle ([1]; 180 mg day^−1, all cycles) | Diarrhoea grade 1, worse toxicity per cycle ([1]; 180 mg day^−1, all cycles) | Diarrhoea grade 2, worse toxicity per cycle ([1]; 180 mg day^−1, all cycles) | Diarrhoea grade 4, worse toxicity per cycle ([1]; 180 mg day^−1, all cycles) | Fatigue grade 1, worse toxicity per cycle ([1]; 180 mg day^−1, all cycles) | Fatigue grade 2, worse toxicity per cycle ([1]; 180 mg day^−1, all cycles) | Nausea grade 2, worse toxicity per cycle ([1]; 180 mg day^−1, all cycles) | Nausea grade 3, worse toxicity per cycle ([1]; 180 mg day^−1, all cycles) | ANC grade 3, no. of patients ([1]; 180 mg day^−1, first cycle) | DLT, no. of patients ([1]; 180 mg day^−1, first cycle) | Diarrhoea grade 1, no. of patients ([1]; 180 mg day^−1, first cycle) | Diarrhoea grade 2, no. of patients ([1]; 180 mg day^−1, first cycle) | Fatigue grade 1, no. of patients ([1]; 180 mg day^−1, first cycle) | Fatigue grade 2, no. of patients ([1]; 180 mg day^−1, first cycle) | Fatigue grade 3, no. of patients ([1]; 180 mg day^−1, first cycle)

— publication PMC2409936, “Phase I and pharmacokinetic study of XR11576, an oral topoisomerase I and II inhibitor, administered on days 1–5 of a 3-weekly cycle in patients with advanced solid tumours” (British Journal of Cancer, 2004)
